One data set addresses T1, hA2B AR (Homo sapiens, UniProt P29275).
T1 construct: expressed in transfected cells; host or cells: CHO cells
T1 sequence (P29275 1-332): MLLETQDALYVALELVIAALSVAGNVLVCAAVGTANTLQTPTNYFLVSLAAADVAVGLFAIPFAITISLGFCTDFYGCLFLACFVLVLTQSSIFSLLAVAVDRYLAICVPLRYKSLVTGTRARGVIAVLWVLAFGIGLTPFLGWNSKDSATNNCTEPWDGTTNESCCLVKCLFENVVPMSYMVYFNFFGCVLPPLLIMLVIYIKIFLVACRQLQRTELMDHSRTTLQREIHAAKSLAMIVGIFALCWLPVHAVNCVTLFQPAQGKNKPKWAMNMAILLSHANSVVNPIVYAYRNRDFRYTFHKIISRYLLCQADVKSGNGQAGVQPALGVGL
Kind of data set: Inhibition of NECA stimulated adenylyl cyclase activity (cAMP assay) in CHO cells expressing hA2B receptor. Format: cell-based. Conditions: for inhibition at 10 µM: CHO, at 10 μM of tested compound, cAMP assay, read-out: hA2BAR percentage of inhibition (I%); for IC50: NECA stimulated cAMP, hA2B CHO cells, read-out: hA2BAR IC50 (potency in cAMP assay). An excerpt: At the end of the experiments, plates were read with the Perkin Elmer EnSight Multimode Plate Reader.
(In general: cAMP levels reflect the balance of adenylyl cyclase and phosphodiesterase activity.)

The next data set has as its target T2, hA1 AR (Homo sapiens, UniProt P30542).
T2 sequence (P30542 1-326): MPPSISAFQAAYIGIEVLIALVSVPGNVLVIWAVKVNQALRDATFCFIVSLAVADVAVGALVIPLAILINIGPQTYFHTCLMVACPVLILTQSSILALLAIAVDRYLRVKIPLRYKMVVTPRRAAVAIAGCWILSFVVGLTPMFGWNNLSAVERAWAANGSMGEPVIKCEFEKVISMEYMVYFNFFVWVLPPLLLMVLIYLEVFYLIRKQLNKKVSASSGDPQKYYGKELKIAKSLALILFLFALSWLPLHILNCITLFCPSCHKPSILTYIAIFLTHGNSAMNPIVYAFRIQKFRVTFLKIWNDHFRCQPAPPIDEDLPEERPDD
In words: Competition binding of [3H]DPCPX to hA1 AR in CHO cell membranes.

The target in another data set is hA2A AR (Homo sapiens, UniProt P29274). In words: Competition binding of [3H]ZM241385 to hA2A AR in CHO cell membranes.
Sequence of hA2A AR (P29274 whole entry): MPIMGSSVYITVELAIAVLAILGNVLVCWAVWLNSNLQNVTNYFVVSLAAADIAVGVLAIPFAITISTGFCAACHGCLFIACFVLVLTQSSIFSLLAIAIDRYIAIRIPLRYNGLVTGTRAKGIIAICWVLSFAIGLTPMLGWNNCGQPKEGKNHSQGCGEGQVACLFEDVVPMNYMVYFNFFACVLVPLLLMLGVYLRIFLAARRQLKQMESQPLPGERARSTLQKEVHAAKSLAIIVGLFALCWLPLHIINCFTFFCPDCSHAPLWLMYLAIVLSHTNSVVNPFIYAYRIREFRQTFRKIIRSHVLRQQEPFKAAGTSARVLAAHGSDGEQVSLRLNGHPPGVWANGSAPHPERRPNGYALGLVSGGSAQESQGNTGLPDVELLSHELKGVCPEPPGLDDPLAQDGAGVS
The next data set deals with T3, hA3 AR (Homo sapiens, UniProt P0DMS8).
T3 sequence (P0DMS8 1-318): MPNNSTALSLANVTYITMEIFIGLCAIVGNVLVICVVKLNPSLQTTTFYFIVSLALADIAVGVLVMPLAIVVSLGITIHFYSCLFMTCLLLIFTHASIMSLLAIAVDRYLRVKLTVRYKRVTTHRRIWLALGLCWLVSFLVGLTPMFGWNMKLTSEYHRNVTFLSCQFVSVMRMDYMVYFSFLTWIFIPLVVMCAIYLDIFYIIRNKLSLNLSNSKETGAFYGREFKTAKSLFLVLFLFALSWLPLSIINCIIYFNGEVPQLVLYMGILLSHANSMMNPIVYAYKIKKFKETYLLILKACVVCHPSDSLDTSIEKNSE
In words: Competition binding of [125I]AB-MECA to hA3 AR in CHO cell membranes. Conditions: for inhibition at 10 µM: read-out: hA3AR percentage of inhibition (I%).

Description for hA1 AR: (§1) For membrane preparation, the cells were washed with phosphate-buffered saline and scraped off T75 flasks in an ice-cold hypotonic buffer (5 mMTris-HCl, 1 mM EDTA, pH 7.4). The cell suspensions were homogenized with a Polytron, centrifuged for 30 min at 40,000× g at 4 °C and the resulting membrane pellets were used for competition binding experiments [44].
(§2) Non-specific binding was defined as binding in the presence of 1 μM DPCPX and was always <10% of the total binding [44]. […] Non-specific binding was defined as binding in the presence of 1 μM ABMECA and was always < 10% of the total binding [46]. Bound and free radioactivity were separated by filtering the assay mixture through Whatman GF/B glass fiber filters using a Brandel cell harvester (Brandel Instruments, Unterföhring, Germany).
(§3) The protein concentration was determined according to a Bio-Rad method with bovine albumin as a standard reference. […] Ki and IC50 values were calculated by the non-linear regression analysis using the equation for a sigmoid concentration-response curve (Graph-PAD Prism, San Diego, CA, USA).
Description for hA2A AR: as §1, §2, §3
Description for hA3 AR: as §1, §2, §3

For orientation: inhibition means the change of the read-out against control, counted positive when it falls. For orientation: IC50 means the concentration needed to halve the response being measured. What is called melting point is the temperature, or range, at which the solid turns liquid. Broadly, the Ki is the dissociation constant of the complex between target and ligand, obtained from inhibition or displacement. `Nc1nc(N2CCN(CCc3ccccc3)CC2)nc2sc(-c3ccco3)nc12` [compound 4, 2-(Furan-2-yl)-5-(4-phenethylpiperazin-1-yl)thiazolo[5,4-d]pyrimidin-7-amine] registered a melting point of 203 to 204 °C. At hA2B AR, the inhibition at 10 µM turned out to be 11% and the IC50 was over 10 µM. The same compound registered a Ki on hA1 AR of 1210 ± 114 nM. At hA2A AR, the Ki was 237 ± 17 nM. In addition, on hA3 AR, the Ki was 0.197 ± 0.016 µM.
With `Nc1nc(N2CCN(C(=O)c3ccco3)CC2)nc2sc(-c3ccco3)nc12` [compound 6, (4-(7-Amino-2-(furan-2-yl)thiazolo[5,4-d]pyrimidin-5-yl)piperazin-1-yl)(furan-2-yl)methanone], the melting point was 227 to 229 °C. At hA2B AR, the inhibition at 10 µM is 10% and the IC50 is over 10 µM. For the same compound, affinity on hA1 AR was put at a Ki of 2770 ± 249 nM. The compound further returned a Ki on hA2A AR of 137 ± 11 nM. The same compound returned a Ki at hA3 AR of 0.816 ± 0.074 µM.
`CN(C)CCN1CCN(c2nc(N)c3nc(-c4ccco4)sc3n2)CC1` [compound 7, 5-(4-(2-(Dimethylamino)ethyl)piperazin-1-yl)-2-(furan-2-yl)thiazolo[5,4-d]pyrimidin-7-amine] returned a melting point of 183 to 186 °C. Besides, at hA2B AR, the inhibition at 10 µM amounted to 23% and the IC50 was over 10 µM. This compound registered a Ki on hA1 AR of 345 ± 28 nM. At hA2A AR, this compound showed a Ki of 29 ± 3 nM. On hA3 AR, the Ki is over 10 µM and the inhibition at 10 µM is 34%.
On to `Nc1nc(NCCN2CCC(Cc3ccccc3)CC2)nc2sc(-c3ccco3)nc12` [compound 10, N^5-(2-(4-Benzylpiperidin-1-yl)ethyl)-2-(furan-2-yl)thiazolo[5,4-d]pyrimidine-5,7-diamine], for which the melting point was 155 to 157 °C. Further, at hA2B AR, the inhibition at 10 µM was determined as 22% and the 50% inhibitory concentration (IC50) is over 10 µM. This compound gave a Ki at hA1 AR of 725 ± 67 nM. This compound showed an inhibition constant Ki at hA2A AR of 187 ± 16 nM. At hA3 AR, the Ki was over 10 µM and the inhibition at 10 µM was determined as 22%.
`Nc1nc(NCCN2CCN(Cc3ccccc3)CC2)nc2sc(-c3ccco3)nc12` [compound 12, N^5-(2-(4-Benzylpiperazin-1-yl)ethyl)-2-(furan-2-yl)thiazolo[5,4-d]pyrimidine-5,7-diamine] displayed a melting point of 133 to 135 °C. In addition, on hA2B AR, the inhibition at 10 µM was 26% and the IC50 is over 10 µM. The Ki on hA1 AR worked out at 798 ± 72 nM. The compound also gave a Ki on hA2A AR of 92 ± 8 nM. Further, on hA3 AR, the Ki was over 10 µM and the inhibition at 10 µM was found to be 17%.
As for `COc1ccc(CN2CCC(CNc3nc(N)c4nc(-c5ccco5)sc4n3)CC2)cc1` [compound 20, 2-(Furan-2-yl)-N^5-((1-(4-methoxybenzyl)piperidin-4-yl)methyl)thiazolo[5,4-d]pyrimidine-5,7-diamine], the melting point lay within 182 to 183 °C. Also, on hA2B AR, the inhibition at 10 µM amounted to 24% and the IC50 was over 10 µM. The same compound yielded a Ki at hA1 AR of 152 ± 11 nM. Further, at hA1 AR (displacement of [3H]DPCPX, CHO cells, mean ± SEM, n = 3–6), the “hA1AR Ki” value was “good affinities”. The compound further registered a Ki on hA2A AR of 88 ± 9 nM. On hA3 AR, the Ki was over 10 µM and the inhibition at 10 µM came out at 29%.

These data come from article PMC7465344 (Pharmaceuticals, 2020).
